From the NIST ThermoML archive (doi:10.1021/acs.jced.7b00176)

Assays:
[1] = Liquid, Vibrating tube method
[2] = xn = mol fraction of the nth substance listed; details: Liquid, Vibrating tube method, x1 = 1

COCCOCCOC [2,5,8-trioxanonane]
[1]
Details	mass density [kg/m3]
283.67 K, 40000 kPa	978.49
283.67 K, 60000 kPa	989.12
283.67 K, 80000 kPa	998.75
283.67 K, 100000 kPa	1007.71
283.68 K, 10000 kPa	960.29
283.68 K, 20000 kPa	966.68
283.68 K, 30000 kPa	972.8
283.69 K, 100 kPa	953.48
283.69 K, 1000 kPa	954.15
283.69 K, 5000 kPa	956.94
303.47 K, 100 kPa	933.69
303.47 K, 1000 kPa	934.43
303.48 K, 5000 kPa	937.55
303.48 K, 10000 kPa	941.31
303.49 K, 20000 kPa	948.42
303.49 K, 30000 kPa	955.17
303.49 K, 40000 kPa	961.41
303.49 K, 60000 kPa	973.02
303.5 K, 80000 kPa	983.33
303.5 K, 100000 kPa	992.97
322.62 K, 100 kPa	914.41
322.62 K, 1000 kPa	915.3
322.62 K, 5000 kPa	918.77
322.62 K, 10000 kPa	923.02
322.62 K, 20000 kPa	930.99
322.62 K, 30000 kPa	938.31
322.62 K, 40000 kPa	945.16
322.62 K, 60000 kPa	957.74
322.62 K, 80000 kPa	968.98
322.62 K, 100000 kPa	979.2
342.49 K, 100 kPa	894.03
342.49 K, 1000 kPa	894.98
342.49 K, 5000 kPa	898.96
342.5 K, 10000 kPa	903.66
342.5 K, 20000 kPa	912.57
342.51 K, 30000 kPa	920.68
342.51 K, 40000 kPa	928.18
342.51 K, 60000 kPa	941.77
342.51 K, 80000 kPa	953.82
342.52 K, 100000 kPa	964.68
362.51 K, 100 kPa	873.45
362.51 K, 1000 kPa	874.46
362.51 K, 5000 kPa	879.02
362.52 K, 10000 kPa	884.41
362.52 K, 20000 kPa	894.33
362.52 K, 30000 kPa	903.29
362.52 K, 40000 kPa	911.53
362.53 K, 60000 kPa	926.3
362.53 K, 80000 kPa	939.26
362.53 K, 100000 kPa	950.89

CCCCO [butan-1-ol]
[1]
Details	mass density [kg/m3]
283.63 K, 80 kPa	817.19
283.63 K, 5000 kPa	820.7
283.64 K, 1000 kPa	817.88
283.64 K, 40000 kPa	842.03
283.64 K, 60000 kPa	852.39
283.64 K, 100000 kPa	870.33
283.65 K, 30000 kPa	836.43
283.65 K, 80000 kPa	861.72
283.66 K, 10000 kPa	824.01
283.66 K, 20000 kPa	830.39
303.45 K, 100 kPa	801.81
303.45 K, 1000 kPa	802.54
303.46 K, 5000 kPa	805.65
303.46 K, 10000 kPa	809.35
303.47 K, 20000 kPa	816.29
303.47 K, 30000 kPa	822.84
303.47 K, 40000 kPa	828.87
303.47 K, 60000 kPa	839.95
303.48 K, 80010 kPa	849.82
303.48 K, 100000 kPa	858.94
323.25 K, 1000 kPa	787.19
323.26 K, 100 kPa	786.36
323.26 K, 5000 kPa	790.63
323.27 K, 10000 kPa	794.68
323.27 K, 20000 kPa	802.33
323.27 K, 30000 kPa	809.41
323.28 K, 40000 kPa	816
323.28 K, 60000 kPa	827.77
323.28 K, 80000 kPa	838.31
323.28 K, 100000 kPa	847.65
343.03 K, 100 kPa	769.54
343.03 K, 1000 kPa	770.45
343.04 K, 5000 kPa	774.32
343.04 K, 10000 kPa	778.88
343.05 K, 20000 kPa	787.37
343.05 K, 30000 kPa	795.06
343.05 K, 40000 kPa	802.13
343.05 K, 60000 kPa	814.83
343.05 K, 80000 kPa	826.08
343.05 K, 100000 kPa	836.2
362.68 K, 100 kPa	752.67
362.68 K, 1000 kPa	753.64
362.68 K, 30000 kPa	781.04
362.69 K, 5000 kPa	758.03
362.69 K, 10000 kPa	763.16
362.69 K, 20000 kPa	772.56
362.7 K, 40000 kPa	788.67
362.7 K, 60000 kPa	802.36
362.71 K, 80000 kPa	814.44
362.71 K, 100000 kPa	825.18

CCCCO [butan-1-ol] + COCCOCCOC
[2]
Details	mass density [kg/m3]
283.63 K, 80 kPa	817.19
283.63 K, 5000 kPa	820.7
283.64 K, 1000 kPa	817.88
283.64 K, 40000 kPa	842.03
283.64 K, 60000 kPa	852.39
283.64 K, 100000 kPa	870.33
283.65 K, 30000 kPa	836.43
283.65 K, 80000 kPa	861.72
283.66 K, 10000 kPa	824.01
283.66 K, 20000 kPa	830.39
303.45 K, 100 kPa	801.81
303.45 K, 1000 kPa	802.54
303.46 K, 5000 kPa	805.65
303.46 K, 10000 kPa	809.35
303.47 K, 20000 kPa	816.29
303.47 K, 30000 kPa	822.84
303.47 K, 40000 kPa	828.87
303.47 K, 60000 kPa	839.95
303.48 K, 80010 kPa	849.82
303.48 K, 100000 kPa	858.94
323.25 K, 1000 kPa	787.19
323.26 K, 100 kPa	786.36
323.26 K, 5000 kPa	790.63
323.27 K, 10000 kPa	794.68
323.27 K, 20000 kPa	802.33
323.27 K, 30000 kPa	809.41
323.28 K, 40000 kPa	816
323.28 K, 60000 kPa	827.77
323.28 K, 80000 kPa	838.31
323.28 K, 100000 kPa	847.65
343.03 K, 100 kPa	769.54
343.03 K, 1000 kPa	770.45
343.04 K, 5000 kPa	774.32
343.04 K, 10000 kPa	778.88
343.05 K, 20000 kPa	787.37
343.05 K, 30000 kPa	795.06
343.05 K, 40000 kPa	802.13
343.05 K, 60000 kPa	814.83
343.05 K, 80000 kPa	826.08
343.05 K, 100000 kPa	836.2
362.68 K, 100 kPa	752.67
362.68 K, 1000 kPa	753.64
362.68 K, 30000 kPa	781.04
362.69 K, 5000 kPa	758.03
362.69 K, 10000 kPa	763.16
362.69 K, 20000 kPa	772.56
362.7 K, 40000 kPa	788.67
362.7 K, 60000 kPa	802.36
362.71 K, 80000 kPa	814.44
362.71 K, 100000 kPa	825.18
